Source: patent publication US10190094B2, “Methods and compositions related to induced sensory neurons” (priority 2013, dated 2019)
Values joined by “and” are separate entries in the source; they are usually repeats but may differ in a detail not shown here. Equal values may be shown once. Read-outs that look alike come from different tables or passages of the source.

Key:
MEFs = assay: Reprogramming of MEFs in presence of EdU or mitotic inhibitor AraC; format: cell-based, mouse
Protocol: Immunohistochemistry, and RT-PCR: For immunofluorescence staining, cells were fixed 4% paraformaldehyde for 10 minutes at room temperature. Cells were then washed three times with PBS and subsequently permeabilized with 0.1% Triton X-100 (Sigma) in PBS. After washing and permeabilization cells were blocked in 5% horse serum for thirty minutes at room temperature. Primary staining was performed overnight at 4° C. in block. Secondary antibodies were diluted in blocking solution and stained room temperature for one hour. EdU staining was performed using Click-it EdU kit (C10337;Invitrogen) following manufacturer's instructions. […]
We examined whether the observed reprogramming of fibroblasts to the somatic sensory lineage requires cell division or specialized embryonic precursors. […] Second, to further block proliferation we applied the mitotic inhibitor arabinofuranosyl cytidine (AraC) to cultures continuously from three days post induction and quantified the number of Map2-positive cells on day 14.

[1] = system: BN1 and BN2 iSNs (TrpA1, TrpM8, TrpV1); assay: Calcium imaging of mouse iSNs exposed to Trp channel ligands (Map2::GCAMP5.G); format: cell-based
[2] = system: Human iSNs (TRPA1, TRPM8, TRPV1); assay: Calcium imaging of human iSNs exposed to TRP channel ligands; format: cell-based
[3] = mouse BN1 iSNs, KCl responders, 10 μM capsaicin, 100 μM menthol, 100 μM mustard oil
[4] = mouse BN2 iSNs, KCl responders, 10 μM capsaicin, 100 μM menthol, 100 μM mustard oil
[5] = human BN1 iSNs, KCl responders, 10 μM capsaicin, 100 μM menthol, 100 μM mustard oil
[6] = human BN2 iSNs, KCl responders, 10 μM capsaicin, 100 μM menthol, 100 μM mustard oil

| SMILES | inhibition of proliferative cells (MEFs; 4 μM) [%] | effect of mitotic inhibition on number of neurons (Map2-positive cells) produced during reprogramming (MEFs; applied continuously from three days post induction, counted day 14, BN1 or BN2) | iSNs exhibiting calcium transients in response to ligand [1, 3] | iSNs exhibiting calcium transients in response to ligand [1, 4] | iSNs exhibiting calcium transients in response to ligand [2, 5] | iSNs exhibiting calcium transients in response to ligand [2, 6] | iSNs exhibiting calcium transients in response to ligand [1] | iSNs exhibiting calcium transients in response to ligand [2] |
| --- | --- | --- | --- | --- | --- | --- | --- | --- |
| Nc1ccn([C@@H]2O[C@H](CO)[C@@H](O)[C@@H]2O)c(=O)n1 [AraC, arabinofuranosyl cytidine] | > 90 | did not significantly alter the number of neurons |  |  |  |  |  |  |
| COc1cc(CNC(=O)CCCC/C=C/C(C)C)ccc1O [capsaicin] |  |  | 19.7%±3.0 | 21.2%±3.5 | 4.4%±1.7 | 5.9%±3.3 |  |  |
| CC1CCC(C(C)C)C(O)C1 (stereo not drawn) [menthol] |  |  | 15.4%±2.6 | 17.4%±4.3 | 4.4%±1.4 | 6.0%±2.3 |  |  |
| C=CCN=C=S [mustard oil, allyl isothiocyanate] |  |  |  |  |  |  | 12.9%±3.8 and 12.5%±3.4 | 12.8%±4.5 and 8.8%±3.7 |
